Source: US10851097B2, “4,5,6,7-tetrahydro-1H-imidazo[4,5-c]pyridine and 1,4,5,6,7,8-hexahydroimidazo[4,5-d]azepine derivatives as janus kinase inhibitors” (Topivert Pharma Limited, priority 2015, dated 2020)
Where two headings read alike, the source gives them in different places.

What was measured:
JAK1 = molecular target: T1, JAK1 (Homo sapiens, UniProt P23458); experiment: KINOMEscan enzyme binding assay (DiscoveRx), JAK1; conditions: read-out: Dissociation Constant JAK1
T1 construct: purchased DiscoveRx (LeadHunter Discover Services, KINOMEscan)
Protocol: (§1) These assays may be conducted by DiscoveRx (formerly Ambit; San Diego, Calif.). The percentage inhibition produced by incubation with a test compound may be calculated relative to the non-inhibited control.

JAK3 = molecular target: T2, JAK3 (Homo sapiens, UniProt P52333); experiment: KINOMEscan enzyme binding assay (DiscoveRx), JAK3; conditions: read-out: Dissociation Constant JAK3
T2 construct: purchased DiscoveRx (LeadHunter Discover Services, KINOMEscan)
Protocol: as §1

[1] = Systemic pharmacokinetics and total colon tissue distribution after single oral administration in mice; type: in vivo, male C57BL/6 mice; conditions: for Kp: total colon tissue / plasma, po, 10 mg/kg
Protocol: Studies were conducted by Sai Life Sciences (Hinjewadi, Pune, India) to investigate the systemic pharmacokinetics and total colon tissue distribution of compounds of the invention following a single oral administration in male C57BL/6 mice.
A group of twenty four male mice were administered with a solution of test compound formulated at a dose of 10 mg/10 mL/kg in aqueous hydroxypropyl-β-cyclodextrin (20% w/v in water). Blood samples (approximately 60 μL) were collected from retro-orbital plexus of each mouse under light isoflurane anaesthesia such that the samples were obtained at 0.5, 1, 2, 4, 6, 8, 12 and 24 hr. The blood samples were collected from a set of three mice at each time point in a labeled micro centrifuge tube containing K2EDTA as anticoagulant. Plasma samples were separated by centrifugation at 4000 rpm for 10 min and stored below −70° C. until bioanalysis. After collection of blood sample, animals were humanely euthanized by carbon dioxide asphyxiation to collect total colon tissues. The colons were flushed with cold PBS (pH7.4) to remove contents. The total colon tissues were homogenized with cold PBS (pH7.4) of twice the weight of colon tissue and stored below −70° C. Total volume was three times the total colon tissue weights. All samples were processed for analysis by protein precipitation using acetonitrile and analyzed with a fit-for-purpose LC-MS/MS method. Pharmacokinetic parameters were calculated using the non-compartmental analysis tool of Phoenix WinNonlin® (Version 6.3).

[2] = male, C57BL/6, mouse, oral 10 mg/kg, plasma, read-out: Mean plasma concentration
[3] = male, C57BL/6, mouse, total colon tissue, oral 10 mg/kg, total colon, read-out: Total colon level

T1 sequence (P23458 866-1154 limits assumed): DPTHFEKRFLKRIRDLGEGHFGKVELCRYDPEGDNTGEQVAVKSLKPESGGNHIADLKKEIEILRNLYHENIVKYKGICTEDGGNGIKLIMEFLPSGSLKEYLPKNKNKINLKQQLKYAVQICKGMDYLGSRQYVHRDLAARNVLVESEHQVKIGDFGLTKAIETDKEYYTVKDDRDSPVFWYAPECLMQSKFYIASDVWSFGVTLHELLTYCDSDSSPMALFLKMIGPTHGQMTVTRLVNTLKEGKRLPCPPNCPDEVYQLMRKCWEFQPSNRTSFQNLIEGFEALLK
T2 sequence (P52333 813-1124 limits assumed): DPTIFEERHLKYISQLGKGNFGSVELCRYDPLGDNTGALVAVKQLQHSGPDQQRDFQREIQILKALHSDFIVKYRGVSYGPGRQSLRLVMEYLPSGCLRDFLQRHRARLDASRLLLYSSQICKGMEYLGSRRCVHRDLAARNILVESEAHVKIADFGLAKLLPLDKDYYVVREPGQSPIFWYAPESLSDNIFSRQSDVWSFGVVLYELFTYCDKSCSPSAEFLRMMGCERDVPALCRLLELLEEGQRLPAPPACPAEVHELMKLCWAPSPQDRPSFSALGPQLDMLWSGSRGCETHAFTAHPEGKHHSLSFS

CCc1cc(O)c(F)cc1-c1ccc2c(-c3nc4c([nH]3)CCN(C(=O)c3cnc(N(C)CCN5CCCC5=O)cn3)C4)n[nH]c2c1 [Example 2(k), 1-(2-((5-(2-(6-(2-ethyl-5-fluoro-4-hydroxyphenyl)-1H-indazol-3-yl)-4,5,6,7-tetrahydro-1H-imidazo[4,5-c]pyridine-5-carbonyl)pyrazin-2-yl)(methyl)amino)ethyl)pyrrolidin-2-one] gave a Kd (JAK1) of 1 nM, a Kd (JAK3) of 0.092 nM and a concentration at 0.5 h [1, 2] of 2.4 ng/mL. It also gave a concentration at 1 h [1, 2] of 2.6 ng/mL, a concentration at 2 h [1, 2] of 1.9 ng/mL and a concentration at 4 h [1, 2] of 1.1 ng/mL. The concentration at 6 h [1, 2] was 3.4 ng/mL, the concentration at 8 h [1, 2] was 4.8 ng/mL and the concentration at 12 h [1, 2] was 1.2 ng/mL. For the same molecule, the concentration at 24 h [1, 2] was 0 ng/mL, the AUC(0-t) ([1]; male, C57BL/6, mouse, oral 10 mg/kg, plasma, read-out: AUC0-24 h P (plasma)) was 20 ng·h/mL and the Cmax ([1]; male, C57BL/6, mouse, oral 10 mg/kg, plasma, read-out: Cmax P (plasma)) was 4.8 ng/mL. For the same molecule, the Kp ([1]; male, C57BL/6, mouse, read-out: AUC0-24 h ratio (total colon to plasma)) was 4850, the Kp ([1]; male, C57BL/6, mouse, read-out: Cmax ratio (total colon to plasma)) was 3170 and the concentration at 0.5 h [1, 3] was 431 ng/g. For the same molecule, the concentration at 1 h [1, 3] was 1160 ng/g, the concentration at 2 h [1, 3] was 5450 ng/g and the concentration at 4 h [1, 3] was 7230 ng/g. It also gave a concentration at 6 h [1, 3] of 4820 ng/g, a concentration at 8 h [1, 3] of 15200 ng/g and a concentration at 12 h [1, 3] of 2220 ng/g. The concentration at 24 h [1, 3] was 44.8 ng/g, the Cmax ([1]; male, C57BL/6, mouse, total colon tissue, oral 10 mg/kg, total colon, read-out: Cmax C (total colon)) was 15200 ng/g and the “Systemic plasma exposure following oral administration” value ([1]; oral 10 mg/kg, plasma, in words) was “very low”. For the same molecule, the “AUC0-24 h C (total colon)” value ([1]; oral 10 mg/kg, total colon) was 97,062 h · ng/g and the “Colonic concentrations following oral administration” value ([1]; oral 10 mg/kg, total colon, in words) was “substantial colonic concentrations”.
